Data taken from patent US9919998B2, “Antibacterial agents: Nα-aroyl-N-aryl-phenylalaninamides” (priority 2014, dated 2018).
Converted amounts (≈) assume the structure as drawn. Like-named read-outs stand apart in the source and are kept apart here.

Tests used:
[1] = system: rifampin-resistant mutants, derivatives of M. smegmatis ATCC19420; assay: MICs in rifampin-resistant mutants (cross-resistance levels); type: cell-based, Mycobacterium smegmatis
From the text: (§1) MICs in Mycobacterium smegmatis ATCC 19420 and Mycobacterium smegmatis ATCC 19420 derivatives were quantified using broth microdilution assays as described [Clinical and Laboratory Standards Institute (CLSI/NCCLS) (2009) Methods for Dilution Antimicrobial Susceptibility Tests for Bacteria That Grow Aerobically; Approved Standard, Eighth Edition. CLIS Document M07-A8 (CLIS, Wayne Pa.)].

[2] = system: AAP1-resistant mutants, derivatives of M. smegmatis ATCC19420; assay: MICs in AAP1-resistant mutants (resistance and cross-resistance levels); type: cell-based, Mycobacterium smegmatis
[3] = system: Mycobacterium tuberculosis H37Rv; assay: Microplate Alamar Blue assay (MABA) MIC, M. tuberculosis; type: cell-based
From the text: (§2) Minimal inhibitory concentrations (MICs) in Mycobacterium tuberculosis H37Rv and Mycobacterium avium ATCC 25291 were quantified using microplate Alamar Blue assays as described (MABA; [Collins, L. & Franzblau, S. (1997) Microplate Alamar Blue assay versus BACTEC 460 system for high-throughput screening of compounds against Mycobacterium tuberculosis and Mycobacterium avium. Antimicrob. Agents Chemother. 41, 1004-1009]).

[4] = system: Mycobacterium smegmatis ATCC 19420; assay: Spontaneous resistance rate, fluctuation assays; type: cell-based; details: 96 h fluctuation assays, M. smegmatis ATCC19420
Description: Resistance rates were determined using fluctuation assays [Luria, S., Delbrück, M. (1943) Genetics 28, 491-511.]. […] (at least 3 independent determinations for each concentration of each test compound). Resistance rates and 95% confidence intervals were calculated using the Ma-Sandri-Sarkar Maximum Likelihood Estimator (MSS-MLE [Ma, W., Sandri, GvH., Sarkar, S. (1992.) J. Appl. Probab. 29, 255-267; Sarkar, S., Ma, W., Sandri, GvH. (1992) Genetica 85, 173-179]) as implemented on the Fluctuation Analysis Calculator (FALCOR; www.keshavsingh.org/protocols/FALCOR.html [Hall, B., Ma, C., Liang, P., Singh, K (2009) Bioinformatics 25, 1564-1565]). Sampling correction was performed as in [Stewart, F., Gordon, D., Levin, B. (1990) Genetics 124, 175-185; Jones, M. (1993) Mutat. Res. 292, 187-189].

[5] = system: Mycobacterium smegmatis ATCC 19420; assay: Broth microdilution MIC, M. smegmatis; type: cell-based; details: Mycolicibacterium smegmatis
From the text: as §1

[6] = molecular target: Mycobacterium tuberculosis RNA polymerase (Mycobacterium tuberculosis, UniProt P9WGY7+P9WGY9); assay: Run-off transcription assay with Mycobacterium tuberculosis RNA polymerase (radiochemical); type: biochemical
Chain of Mycobacterium tuberculosis RNA polymerase (P9WGZ1 whole entry, the tested form may be a part): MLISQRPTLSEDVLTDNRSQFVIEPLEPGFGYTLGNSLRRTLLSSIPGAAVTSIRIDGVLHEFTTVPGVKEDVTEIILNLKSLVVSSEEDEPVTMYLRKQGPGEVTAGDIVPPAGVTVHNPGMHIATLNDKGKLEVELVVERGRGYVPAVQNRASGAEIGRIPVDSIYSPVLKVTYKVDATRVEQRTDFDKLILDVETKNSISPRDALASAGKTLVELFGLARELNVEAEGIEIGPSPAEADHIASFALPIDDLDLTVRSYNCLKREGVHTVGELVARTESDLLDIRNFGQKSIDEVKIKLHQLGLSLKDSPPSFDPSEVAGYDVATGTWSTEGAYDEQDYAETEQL
Chain of Mycobacterium tuberculosis RNA polymerase (P9WGY5 whole entry, further chain, the tested form may be a part): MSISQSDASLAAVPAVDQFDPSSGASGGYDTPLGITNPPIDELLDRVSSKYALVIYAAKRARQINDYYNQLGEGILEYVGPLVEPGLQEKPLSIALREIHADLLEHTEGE
Chain of Mycobacterium tuberculosis RNA polymerase (P9WGY9 whole entry, the tested form may be a part): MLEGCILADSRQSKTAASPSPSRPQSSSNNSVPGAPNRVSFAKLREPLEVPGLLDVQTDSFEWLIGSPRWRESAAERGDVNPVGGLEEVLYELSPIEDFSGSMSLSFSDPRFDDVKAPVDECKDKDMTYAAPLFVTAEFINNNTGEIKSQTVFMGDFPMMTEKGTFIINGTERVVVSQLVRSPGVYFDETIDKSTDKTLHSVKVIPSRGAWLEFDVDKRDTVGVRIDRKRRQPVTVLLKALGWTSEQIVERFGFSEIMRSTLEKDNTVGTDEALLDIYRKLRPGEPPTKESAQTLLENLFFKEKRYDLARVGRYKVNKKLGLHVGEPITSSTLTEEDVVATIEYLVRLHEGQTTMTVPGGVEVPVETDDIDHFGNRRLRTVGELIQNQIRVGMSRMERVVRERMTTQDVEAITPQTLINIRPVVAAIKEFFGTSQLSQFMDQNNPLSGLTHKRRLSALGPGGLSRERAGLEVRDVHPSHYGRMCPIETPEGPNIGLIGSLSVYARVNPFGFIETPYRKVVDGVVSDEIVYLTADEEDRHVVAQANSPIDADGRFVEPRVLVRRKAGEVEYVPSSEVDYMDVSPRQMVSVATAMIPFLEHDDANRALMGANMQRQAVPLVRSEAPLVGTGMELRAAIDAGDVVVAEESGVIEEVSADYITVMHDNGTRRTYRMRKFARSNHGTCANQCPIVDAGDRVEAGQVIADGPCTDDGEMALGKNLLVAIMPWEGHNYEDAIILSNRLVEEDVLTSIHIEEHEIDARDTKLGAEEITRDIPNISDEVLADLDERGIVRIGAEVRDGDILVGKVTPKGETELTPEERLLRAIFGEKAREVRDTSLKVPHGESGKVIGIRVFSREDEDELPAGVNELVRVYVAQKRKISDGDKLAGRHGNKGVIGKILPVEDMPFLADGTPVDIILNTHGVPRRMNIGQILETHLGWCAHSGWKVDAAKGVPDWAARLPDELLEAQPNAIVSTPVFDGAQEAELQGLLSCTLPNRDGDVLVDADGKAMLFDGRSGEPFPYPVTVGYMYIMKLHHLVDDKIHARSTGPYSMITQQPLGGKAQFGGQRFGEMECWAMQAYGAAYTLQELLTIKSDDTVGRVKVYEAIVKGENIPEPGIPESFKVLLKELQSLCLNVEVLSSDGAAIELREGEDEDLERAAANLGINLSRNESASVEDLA
Chain of Mycobacterium tuberculosis RNA polymerase (P9WGI1 whole entry, further chain, the tested form may be a part): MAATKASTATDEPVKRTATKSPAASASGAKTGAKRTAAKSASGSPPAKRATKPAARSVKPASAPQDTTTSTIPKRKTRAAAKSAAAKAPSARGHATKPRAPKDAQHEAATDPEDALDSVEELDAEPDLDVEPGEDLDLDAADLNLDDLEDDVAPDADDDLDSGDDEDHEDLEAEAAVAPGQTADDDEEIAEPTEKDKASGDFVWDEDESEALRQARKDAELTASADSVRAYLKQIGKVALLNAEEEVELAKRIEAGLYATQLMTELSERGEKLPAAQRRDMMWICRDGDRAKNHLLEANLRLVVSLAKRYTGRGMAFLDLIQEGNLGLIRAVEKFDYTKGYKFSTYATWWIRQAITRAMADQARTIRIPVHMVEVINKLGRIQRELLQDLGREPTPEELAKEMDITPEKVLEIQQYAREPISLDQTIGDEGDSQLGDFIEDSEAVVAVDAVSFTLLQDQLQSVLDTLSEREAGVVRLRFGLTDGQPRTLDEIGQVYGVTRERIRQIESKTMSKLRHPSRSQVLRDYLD
Chain of Mycobacterium tuberculosis RNA polymerase (P9WGY7 whole entry, the tested form may be a part): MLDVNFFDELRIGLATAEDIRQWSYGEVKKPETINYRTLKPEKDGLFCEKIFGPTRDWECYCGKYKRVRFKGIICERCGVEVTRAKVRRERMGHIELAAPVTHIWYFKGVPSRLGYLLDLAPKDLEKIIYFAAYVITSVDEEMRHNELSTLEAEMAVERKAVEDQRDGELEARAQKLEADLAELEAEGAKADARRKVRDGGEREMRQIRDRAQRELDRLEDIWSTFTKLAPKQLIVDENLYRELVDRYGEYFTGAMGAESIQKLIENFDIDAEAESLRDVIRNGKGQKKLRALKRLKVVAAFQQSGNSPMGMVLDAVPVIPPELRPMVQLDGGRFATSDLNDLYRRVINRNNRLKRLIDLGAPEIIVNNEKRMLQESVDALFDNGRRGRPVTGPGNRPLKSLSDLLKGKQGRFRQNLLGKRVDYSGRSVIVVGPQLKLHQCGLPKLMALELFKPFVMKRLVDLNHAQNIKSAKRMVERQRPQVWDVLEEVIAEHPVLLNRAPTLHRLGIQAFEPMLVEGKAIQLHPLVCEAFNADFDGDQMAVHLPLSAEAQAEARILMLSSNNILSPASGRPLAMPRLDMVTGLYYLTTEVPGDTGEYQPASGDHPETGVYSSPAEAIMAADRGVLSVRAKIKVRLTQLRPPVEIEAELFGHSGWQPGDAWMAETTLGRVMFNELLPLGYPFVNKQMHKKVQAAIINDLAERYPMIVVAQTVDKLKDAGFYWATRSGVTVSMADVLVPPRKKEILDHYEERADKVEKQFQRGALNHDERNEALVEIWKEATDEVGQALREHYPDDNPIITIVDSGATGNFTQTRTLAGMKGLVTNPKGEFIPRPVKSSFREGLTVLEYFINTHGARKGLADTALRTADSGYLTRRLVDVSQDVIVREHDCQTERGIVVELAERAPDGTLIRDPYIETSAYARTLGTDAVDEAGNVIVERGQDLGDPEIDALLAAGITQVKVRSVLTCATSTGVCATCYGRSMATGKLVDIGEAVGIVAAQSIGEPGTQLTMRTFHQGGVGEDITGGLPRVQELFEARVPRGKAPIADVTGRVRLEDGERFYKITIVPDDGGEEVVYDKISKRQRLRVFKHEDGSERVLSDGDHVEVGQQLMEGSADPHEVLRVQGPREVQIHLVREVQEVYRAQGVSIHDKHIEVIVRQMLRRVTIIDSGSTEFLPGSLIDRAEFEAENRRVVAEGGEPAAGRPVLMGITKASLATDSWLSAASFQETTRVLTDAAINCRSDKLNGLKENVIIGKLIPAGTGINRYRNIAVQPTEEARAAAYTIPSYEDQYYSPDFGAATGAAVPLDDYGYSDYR
Description: Run-off transcription assays with Mycobacterium tuberculosis RNA polymerase were performed using reaction mixtures containing (10 μl): 0-100 μM test compound, 75 nM Mycobacterium tuberculosis RNA polymerase core enzyme, 300 nM Mycobacterium tuberculosis σ^A, 20 nM 130 bp DNA fragment containing positions −100 to −1 of the bacteriophage […] N25 promoter followed by positions +1 to +30 of the lacUV5-15 promoter of [Mukhopadhyay, J., Kapanidis, A., Mekler, V., Kortkhonjia, E., Ebright, Y., Ebright, R. (2001) Cell 106, 453-463], 25 nM [alpha-^32P]UTP (600 Bq/pmol) for an initial 2 min at 37° C. and 100 μM [alpha-^32P]UTP (6 Bq/pmol) for a subsequent 5 min at 37° C., 100 μM ATP, 100 μM GTP, 100 μM UTP, 100 μM CTP, 40 mM Tris-HCl, pH 8.0, 80 mM NaCl, 5 mM MgCl2, 2.5 mM DTT, and 12.7% glycerol. Reactions were terminated by addition of […] 80% formamide, 10 mM EDTA, 0.04% bromophenol blue, and 0.04% xylene cyanol, followed by heating for 5 min at 90° C. Reaction products were resolved by 15% urea-PAGE, and quantified using a storage-phosphor scanner.

[7] = molecular target: Escherichia coli RNA polymerase (Escherichia coli, UniProt P0A8T7+P0A8V2); assay: Analogous run-off transcription assay with Escherichia coli RNA polymerase; type: biochemical; details: run-off transcription assays with Escherichia coli RNA polymerase; read-out: IC50 for inhibition of Escherichia coli RNA polymerase
[8] = system: Vero E6 ATCC CRL1586 cells; assay: Mammalian-cell cytotoxicity, minimal cytotoxic concentration (CellTiter96); type: cell-based
Description: Minimal cytotoxic concentrations (MCCs) against mammalian cells in culture were determined using Vero E6 ATCC CRL1586 cells and the CellTiter96 assay kit (Promega, Inc.). […]

[9] = system: Mycobacterium avium ATCC 25291; assay: Microplate Alamar Blue assay (MABA) MIC, M. avium; type: cell-based; details: ATCC25291, M. avium ATCC 25291
From the text: as §2

Compound | cross-resistance of rifampin-resistant mutants to the compound [1] | hypersensitivity of rifampin-resistant mutants to the compound [1] | resistance of tested AAP1-resistant mutants ([2]; all tested AAP1-resistant mutants) [fold] | MIC ([3]; MABA-MIC assays, read-out: Inhibition of mycobacterial growth in culture (MICs)) [µg/mL] | spontaneous resistance rate at 2xMIC ([4]; 2xMIC) | spontaneous resistance rate at 4xMIC ([4]; 4xMIC) | spontaneous resistance rate at 8xMIC ([4]; 8xMIC) | MIC ([5]; ATCC19420, broth microdilution assays, M. smegmatis ATCC19420, read-out: Inhibition of mycobacterial growth in culture (MICs)) [µg/mL] | MIC ([5]; ATCC19420, read-out: MIC with wild-type rpoB and wild-type rpoC, M. smegmatis ATCC19420 wild type, reference for AAP1-resistant mutants) [µg/mL] | IC50 ([6]; Inhibition of mycobacterial RNA polymerase (IC50s), radiochemical transcription assays, M. tuberculosis RNA polymerase) [µM] | cross-resistance of AAP1-resistant mutants to the compound ([2]; MICs in AAP1-resistant mutants) | solubility (physchem) [µM] | MIC ([3]; read-out: MIC Mycobacterium tuberculosis H37Rv) [µg/mL] | IC50 [7] [µM] | MCC mammalian cells Vero E6 ATCC CRL1586 [8] [µg/mL] | MIC [9] [µg/mL] | MIC ([5]; ATCC19420, M. smegmatis ATCC 19420, read-out: MIC Mycobacterium smegmatis ATCC 19420) [µg/mL] | IC50 ([6]; IC50 Mycobacterium tuberculosis RNA polymerase) [µM]
Cc1ccccc1NC(=O)C(Cc1ccccc1)NC(=O)c1ccccc1 (racemic) [AAP1, Nα-benzoyl-N-(2-methylphenyl)-D/L-phenylalaninamide] | No rifampin-resistant mutant was found to exhibit cross-resistance | One rifampin-resistant mutant was found to be hypersensitive | > 60 | 6.25 (≈ 17.4 µM) | 5 × 10^−9/generation | 4 × 10^−9/generation | 5 × 10^−9/generation | 0.39 (≈ 1.09 µM) | 0.78 (≈ 2.18 µM) | 0.68 | – | – | – | – | – | – | – | –
O=C(NC(Cc1ccccc1)C(=O)Nc1cccc2[nH]ncc12)c1ccccc1 (stereo not shown) [IX-37, N-(1-((1H-indazol-4-yl)amino)-1-oxo-3-phenylpropan-2-yl)benzamide] | No rifampin-resistant mutant was found to exhibit cross-resistance | – | – | – | – | – | – | – | – | – | cross-resistance | > 10 | 12.5 (≈ 32.5 µM) | 10 | 55 | 12.5 (≈ 32.5 µM) | 0.195 (≈ 0.507 µM) | 3.3
